Laboratory results published in US20110275518A1 (priority 2007, published 2011).
“Also recorded” adds a separate entry of the source.

Legend:
[1] = prior art teaching; cited from earlier work
[2] = tested on: dry bean (Phaseolus vulgaris L) seeds, cultivar 'Othello'; experiment: Germination of diseased dry bean seed under bacterial disease pressure (Experiment 1); type: in vivo
Source text: The precipitate is recovered by filtration and the powder is dried.
Seeds were placed on blotters in Petri plates, were soaked in an excess of water for 3 days, then drained on day 4. The 3-day period of excess water created extremely high pressure from pathogenic and saprophytic bacteria. This led to a very high bacterial load on the germinating seeds and high disease pressure due to pathogenic, saprophytic and soft-rot bacteria. This disease pressure was so extreme that the germination rates for experiments 2-5 were essentially zero due to being overwhelmed by the disease pressure.

[3] = tested on: pulse seeds; details: 0.1% to 1% aqueous coating; pea, chickpea, lentil, soybean
Source text: Germination on blotters was scored at 7- and 14-days. Emergence from soil was scored at 21- and 28-days.
To treat seeds, one hundred seeds were placed in a 50-mL Falcon tube and combined with the treatment solution. Seeds were mixed with the treatment for 5-min by gently rolling and inverting the Falcon tube. Coated seeds were placed in an open Petri plate for 30-min to dry. Seeds were sown 10-per pot, set in a greenhouse, and maintained under standard conditions with mercury lamp lighting supplementing daylight from 3:00 pm to 10:00 pm.
Place 100-seeds into a 50-mL Falcon tube and add 1-mL of treatment solution. Gently roll and invert the tube for 5 min to evenly coat each seed without causing damage. Remove seeds from tube by pouring carefully into an empty Petri plate. Leave exposed (lid off) and air dry seeds for 30 min.
(1) Germination: Place 50 seeds from each treatment onto 25 individual moistened blotters in large Petri plates. Incubate at room temperature for 2-weeks with or without light. Score germination at 7- and 14-days. (2) Emergence: Sow 50 seeds from each treatment into five pots (10-seeds per pot and five pots per treatment). Place in a greenhouse at 22° C. with ample air circulation. Use mercury lamps to supplement lighting (on at 3:00 pm-off at 10:00 pm) if necessary. For pre-emergent plants, water pots as needed to keep soil moist but not wet. Water emergent plants daily. […]

[4] = tested on: healthy dry bean seed; experiment: Germination of healthy dry bean seed; type: in vivo

Molecule | phytotoxicity [1] | phytotoxicity / effect on germination of dry bean seeds ([2]; 0.1% to 1% treatments, days needed to reach 25% germination) | increase in germination compared with the negative control (sterile water) ([2]; 1% treatment, by day 10) [%] | effect on germination of pulse seeds [3] | Day to 50% germination ([4]; 1%) [days] | Day to 50% germination ([4]; […]) [days]
O=[N+]([O-])[O-].[Ag+] [silver nitrate] | phytotoxic |  |  |  |  | 
oxysilver nitrate [high valency silver] |  | no negative effects on germination; also recorded: no phytotoxic effect on germinating seeds | 34.7 | no negative effects on germination of any pulse seed | 5.0 | 5.0
